Test results taken from patent US10865194B2, “Therapeutically active bicyclic-sulphonamides and pharmaceutical compositions” (FONDAZIONE ISTITUTO ITALIANO DI TECNOLOGIA, priority 2017, dated 2020).

What was measured:
human NAAA = molecular target: T1, human NAAA (Homo sapiens, UniProt Q02083); experiment: In vitro human NAAA fluorogenic assay; format: biochemical; conditions: Activity h-NAAA Fluorogenic assay, enzyme-enriched lysate of HEK-293 cells stably transfected with human NAAA
T1 construct: expressed in transfected cells; host or cells: HEK-293 (stably transfected, G418 selection); enzyme-enriched lysate
T1 sequence (Q02083 126-359 limits assumed): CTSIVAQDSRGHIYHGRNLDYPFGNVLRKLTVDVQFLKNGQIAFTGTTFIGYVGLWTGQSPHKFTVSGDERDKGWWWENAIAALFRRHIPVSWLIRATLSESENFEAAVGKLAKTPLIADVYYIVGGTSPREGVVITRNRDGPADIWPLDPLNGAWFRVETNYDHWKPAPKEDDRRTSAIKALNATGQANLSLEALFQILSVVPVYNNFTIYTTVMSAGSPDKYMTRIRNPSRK
T1 sequence (Q02083 29-125 limits assumed): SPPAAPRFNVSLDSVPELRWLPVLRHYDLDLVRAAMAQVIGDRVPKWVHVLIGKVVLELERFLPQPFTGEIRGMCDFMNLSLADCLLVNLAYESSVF
Protocol: Human recombinant proteins were obtained from HEK-293 stable overexpressing NAAA cell lines. Cells were grown in Dulbecco's modified Eagle medium (DMEM) containing 10% FBS, 1% penicillin/streptomycin, 1% glutamine and 500 μg/mL G418. To obtain membrane preparation cells were scraped off with cold phosphate-buffered saline (PBS) and collected by centrifugation (300×g, 7 min, 4° C.). Cell pellet were stored at −80° C. until protein preparation.
In Vitro Human NAAA Assay
Preparation of Enzyme-Enriched Lysate (h-NAAA).
HEK-293 cells stably transfected with the human NAAA coding sequences were used as enzyme source. Cell pellets were suspended in 20 mM Tris HCl (pH 7.4) with 0.32 M sucrose, sonicated and centrifuged at 800×g for 30 min at 4° C. Supernatants were then ultracentrifuged at 12,000×g for 30 min at 4° C. Pellets were re-suspended in PBS buffer (pH 7.4) and subjected to three freeze-thaw cycles at −80° C. The suspension was finally ultracentrifuged at 105,000×g for 1 h at 4° C., supematants were collected, protein concentration was measured and samples aliquoted and stored at −80° C. until use.
The results are summarized in Table 3 as follows, wherein +: IC50>2 μM; ++: 1.0 μM<IC50<2 μM; +++: IC50<1 μM: […]

Neuro2A cells = experiment: Inhibition of ROS production in Neuro2A cells (H2O2-induced, DCFH-DA fluorescence); format: cell-based; conditions: ROS induced with 0.2 mM H2O2
Protocol: The experiments carried out to evaluate the inhibition of ROS production using the compounds of the invention were based on the method reported by Danli W. and Patricia Yotnda in Production and Detection of Reactive Oxygen Species (ROS) in Cancers, J. Vis Exp. 2011; (57):3357.
Cultured brain Neuroblastoma2A (Neuro2A) were used.
15.000 Cells were plated in a 96 well plate with black walls and transparent flat bottom in 100 μL of DMEM complete medium (including 10% fetal bovine serum, […] L-Glutamine) containing compounds at indicated concentrations or 0.5% dimethylsulfoxide (DMSO), and kept overnight at 37° C. to allow them to attach to the plate. The following day the culture medium was removed, cells were washed with 100 μl of Phosphate Buffer Saline, pH 7.4 (PBS) and loaded with 100 μL of PBS containing 10 μM of dichloro-dihydro-fluorescein diacetate (DCFH-DA) and compounds at the indicated concentrations (or DMSO 0.5%) for additional 45 min at 37° C. DCFH-DA was prepared as a 20 mM stock in (DMSO) and kept in the dark at 4° C.
ROS production was induced by exposure with 0.2 mM H2O2 dissolved in 100 μl of complete DMEM medium without phenol red. Fluorescence intensity was measured at an […] wavelengths of 485/535 nm and ROS production was monitored for 2 h, at 37° C.

In the case of `CCCCc1ccc(OC2CC3CCC(C2)N3S(=O)(=O)c2c(C)n[nH]c2C)cc1` [Example 54, (1R,3r,5S)-3-(4-Butylphenoxy)-8-[(3,5-dimethyl-1H-pyrazol-4-yl)sulfonyl]-8-azabicyclo[3.2.1]octane], the IC50 (human NAAA) is reported as under 1000 nM, the “Inhibition of ROS production in neuro 2A cells, 5 μM (inhibition)” value (Neuro2A cells; compound 5 μM) is reported as 17% and the “Inhibition of ROS production in neuro 2A cells, 10 μM (inhibition)” value (Neuro2A cells; compound 10 μM) is reported as 114%.
